Measured values: patent US20120277209A1, “PYRAZINE COMPOUNDS AS PHOSPHODIESTERASE 10 INHIBITORS” (Amgen Inc., priority 2009, published 2012)

These compounds were tested against PDE10 (UniProt Q9Y233) (assay: PDE10 enzyme inhibition, IMAP TR-FRET assay (MPDE10A7 Enzyme Activity and Inhibition)). Details: IC50 class against PDE10; read-out: IC50.
Assay type: biochemical
Method: All compounds were divided in five classes based on their IC50 values against PDE10. The range of the IC50 in each class is as follows:
An IMAP TR-FRET assay was used to analyze the enzyme activity (Molecular Devices Corp., Sunnyvale Calif.). 5 μL of serial diluted PDE10A (BPS Bioscience, San Diego, Calif.) or tissue homogenate was incubated with equal volumes of diluted fluorescein labeled cAMP or cGMP for 60 min in 384-well polystyrene assay plates (Corning, Corning, N.Y.) at room temperature. After incubation, the reaction was stopped by adding 60 μL of diluted binding reagents and was incubated for 3 hours to overnight at room temperature. The plates were read on an Envision (Perkin Elmer, Waltham, Mass.) for time resolved fluorescence resonance energy transfer. The data were analyzed with GraphPad Prism (La Jolla, Calif.).
Enzyme Inhibition. To check the inhibition profile, 5 μL of serial diluted compounds were incubated with 5 μL of diluted PDE10 enzyme (BPS Bioscience, San Diego, Calif.) or tissue homogenate in a 384-well polystyrene assay plate (Corning, Corning, N.Y.) for 30 min at room temperature. After incubation, 10 μL of diluted fluorescein labeled cAMP or cGMP substrate were added and incubated for 60 min at room temperature. The reaction was stopped by adding 60 μL of diluted binding reagents and plates were read on an Envision (Perkin Elmer, Waltham, Mass.) for time resolved fluorescence resonance energy transfer. The data were analyzed with GraphPad Prism (La Jolla, Calif.).
The tabulated IC50 data represent an average IC50 data for each compound.

IC50 [nM]	Structure (SMILES)
25 to 100	CN1CCN(c2nccnc2Oc2ccc(Nc3nc4ccccc4s3)cc2)CC1 [Example 72, N-(4-(3-(4-methylpiperazin-1-yl)pyrazin-2-yloxy)phenyl)-benzo[d]thiazol-2-amine]
< 25	COc1cc(-c2nccnc2Oc2ccc(Nc3nc4ccccc4s3)cc2)ccn1 [Example 152, N-(4-(3-(2-methoxypyridin-4-yl)pyrazin-2-yloxy)phenyl)benzo[d]thiazol-2-amine]
1000 to 5000	Fc1ccc2nc(Nc3ccc(Oc4nccnc4Cl)cc3)sc2c1 [Example 62, N-(4-(3-CHLOROPYRAZIN-2-YLOXY)PHENYL)-6-FLUOROBENZO[D]THIAZOL-2-AMINE]
< 25	O=C(c1ccc(Oc2nccnc2C2CCOCC2)cc1)c1nc2ccccc2[nH]1 [Example 181, (1H-benzo[d]imidazol-2-yl)(4-(3-(tetrahydro-2H-pyran-4-yl)pyrazin-2-yloxy)phenyl)methanone]
25 to 100	O=C(c1ccc(Oc2nccnc2OCCc2ccccn2)cc1)c1nc2ccccc2[nH]1 [Example 177, (1H-benzo[d]imidazol-2-yl)(4-(3-(2-(pyridin-2-yl)ethoxy)pyrazin-2-yloxy)phenyl)methanone]
100 to 250	CN1CCCC1CCOc1nccnc1Oc1ccc(C(=O)c2nc3ccccc3[nH]2)cc1 (stereo not shown) [Example 175]
1000 to 5000	CCCOc1nccnc1Oc1ccc(C(=O)c2nc3ccccc3[nH]2)cc1 [Example 180, (1H-benzo[d]imidazol-2-yl)(4-(3-propoxypyrazin-2-yloxy)phenyl)methanone]
< 25	COC(=O)C1(c2nccnc2Oc2ccc(Nc3nc4ccccc4s3)cc2)CCOCC1 [Example 212, methyl 4-(3-(4-(benzo[d]thiazol-2-ylamino)phenoxy)pyrazin-2-yl)tetrahydro-2H-pyran-4-carboxylate]
25 to 100	COc1ncccc1-c1nccnc1Oc1ccc(Nc2nc3cc(F)ccc3s2)cc1 [Example 154, 5-fluoro-N-(4-(3-(2-methoxypyridin-3-yl)pyrazin-2-yloxy)phenyl)benzo[d]thiazol-2-amine]
< 25	O=C(c1ccc(Oc2nccnc2C2CCCOC2)cc1)c1nc2ccccc2[nH]1 (stereo not shown) [Example 186, 1H-benzimidazol-2-yl(4-((3-(tetrahydro-2H-pyran-3-yl)-2-pyrazinyl)oxy)phenyl)methanone]
100 to 250	CN(C)CCOc1nccnc1Oc1ccc(C(=O)c2nc3ccccc3[nH]2)cc1 [Example 174, (1H-benzo[d]imidazol-2-yl)(4-(3-(2-(dimethylamino)ethoxy)pyrazin-2-yloxy)phenyl)methanone]
< 25	O=C(c1ccc(Oc2nccnc2-c2ccncc2)cc1)c1nc2ccccc2[nH]1 [Example 124, (1H-benzo[d]imidazol-2-yl)(4-(3-(pyridin-4-yl)pyrazin-2-yloxy)phenyl)methanone]
< 25	O=C1CN(c2nccnc2Oc2ccc(Nc3nc4ccccc4s3)cc2)CCN1 [Example 90, 4-(3-(4-(benzo[d]thiazol-2-yl-amino)phenoxy)pyrazin-2-yl)-piperazin-2-one]
< 25	OCC1CCCCN1c1nccnc1Oc1ccc(Nc2nc3ccccc3s2)cc1 (stereo not shown) [Example 97, (1-(3-(4-(benzo[d]thiazol-2-ylamino)phenoxy)pyrazin-2-yl)piperidin-2-yl)methanol]
25 to 100	c1ccc2sc(Nc3ccc(Oc4nccnc4-c4cccc5ncccc45)cc3)nc2c1 [Example 147, N-(4-(3-(quinolin-5-yl)pyrazin-2-yloxy)phenyl)benzo[d]thiazol-2-amine]
25 to 100	COc1ncccc1-c1nccnc1Oc1ccc(Nc2nc3ccc(F)cc3s2)cc1 [Example 153, 6-fluoro-N-(4-(3-(2-methoxypyridin-3-yl)pyrazin-2-yloxy)phenyl)benzo[d]thiazol-2-amine]
< 25	CN(C)CC(=O)N1CCC(c2nccnc2Oc2ccc(Nc3nc4ccccc4s3)cc2)CC1 [Example 246, 1-(4-(3-(4-(benzo[d]thiazol-2-ylamino)phenoxy)pyrazin-2-yl)piperidin-1-yl)-2-(dimethylamino) ethanone]
100 to 250	O=C(c1ccc(Oc2nccnc2Oc2cccnc2)cc1)c1nc2ccccc2[nH]1 [Example 168, (1H-benzo[d]imidazol-2-yl)(4-(3-(pyridin-3-yloxy)pyrazin-2-yloxy)phenyl)methanone]
< 25	CC(=O)N1CCC(c2nccnc2Oc2ccc(Nc3nc4ccccc4s3)cc2)C1 (stereo not shown) [Example 241, 1-(3-(3-(4-(benzo[d]thiazol-2-ylamino)phenoxy)pyrazin-2-yl)pyrrolidin-1-yl)ethanone]
250 to 1000	CC(O)(C1CCN(c2nccnc2Oc2ccc(Nc3nc4ccccc4s3)cc2)CC1)C(F)(F)F (stereo not shown) [Example 73, 2-(1-(3-(4-(benzo[d]thiazol-2-ylamino)phenoxy)pyrazin-2-yl)piperidin-4-yl)-1,1,1-trifluoropropan-2-ol]
< 25	N#CC1CCN(c2nccnc2Oc2ccc(Nc3nc4ccccc4s3)cc2)CC1 [Example 70, 1-(3-(4-(benzo[d]thiazol-2-ylamino)phenoxy)pyrazin-2-yl)piperidine-4-carbonitrile]
< 25	CC(=O)N1CCC(c2nccnc2Oc2ccc(C(=O)c3nc4ccccc4[nH]3)cc2)C1 (stereo not shown) [Example 240, 1-(3-(3-(4-(1H-benzo[d]imidazole-2-carbonyl)phenoxy)pyrazin-2-yl)pyrrolidin-1-yl)ethanone]

Same assay, conditions: PDE10 enzyme inhibition; average IC50 data for each compound; read-out: Average IC50

IC50 [nM]	Structure (SMILES)
1.82	CC(=O)N1CC[C@@H](c2nccnc2Oc2ccc(Nc3nc4ccccc4s3)cc2)C1 (stereo in doubt)
96.1	COc1cccc(-c2nccnc2Oc2ccc(Nc3nc4ccccc4s3)cc2)c1 [drawing 740]
224	COc1nc2ccccc2cc1-c1nccnc1Oc1ccc(C(=O)c2nc3ccccc3[nH]2)cc1 [drawing 943]
0.705	CN(C)CC(=O)N1CCC(c2nccnc2Oc2ccc(Nc3nc4ccccc4s3)cc2)CC1 [drawing 996]
11.3	Cc1ccc(-c2nccnc2Oc2ccc(Nc3nc4ccccc4s3)cc2)cn1 [drawing 764]
11.8	Fc1ccc2sc(Nc3ccc(Oc4nccnc4C4CCOCC4)cc3)nc2c1 [drawing 881]
39.5	COCC1CCN(c2nccnc2Oc2ccc(Nc3nc4ccccc4s3)cc2)CC1 [drawing 741]
0.0175	CC(=O)OCC(=O)N1CCC(c2nccnc2Oc2ccc(C(=O)c3nc4ccccc4[nH]3)cc2)CC1 [drawing 991]
5.19	CCOC(=O)C1CCN(c2nccnc2Oc2ccc(C(=O)c3nc4ccccc4[nH]3)cc2)CC1
803	Fc1cccc2nc(Nc3ccc(Oc4cnccn4)cc3)sc12 [drawing 880]
1.43	CN(C)CC(=O)N1CCC(c2nccnc2Oc2ccc(C(=O)c3nc4ccccc4[nH]3)cc2)CC1 [drawing 995]
603	Clc1nccnc1Oc1ccc(Nc2nc3ccccc3s2)cc1
0.748	C[C@]1(O)CC[C@H](c2nccnc2Oc2ccc(C(=O)c3nc4ccccc4[nH]3)cc2)CC1 [drawing 922]
43.6	COc1nccnc1Oc1ccc(C(=O)c2nc3ccccc3[nH]2)cc1 [drawing 843]
63.8	N#Cc1ccc(-c2nccnc2Oc2ccc(Nc3nc4ccccc4s3)cc2)cn1 [drawing 777]
171	O=C(c1ccc(Oc2nccnc2Cl)cc1)c1nc2ncccc2[nH]1
0.773	CCOC(=O)[C@@H]1CCCN(c2nccnc2Oc2ccc(C(=O)c3nc4ccccc4[nH]3)cc2)C1 (stereo in doubt)
3.24	FCCN1CCC(c2nccnc2Oc2ccc(Nc3nc4ccccc4s3)cc2)CC1 [drawing 962]
65.5	O=C(c1ccc(Oc2nccnc2C(=O)NCCO)cc1)c1nc2ccccc2[nH]1 [drawing 817]
3.18	O=C(c1ccc(Oc2nccnc2-c2cccc3ncccc23)cc1)c1nc2ccccc2[nH]1 [drawing 803]
29	CC(C)(O)[C@H]1CCCN(c2nccnc2Oc2ccc(C(=O)c3nc4ccccc4[nH]3)cc2)C1 (stereo in doubt)
6.75	N#CC1CN(c2nccnc2Oc2ccc(Nc3nc4ccccc4s3)cc2)C1 [drawing 776]
2.22	O[C@@H]1CCC[C@H](c2nccnc2Oc2ccc(Nc3nc4ccccc4s3)cc2)C1 [drawing 910]
1.32	N#C[C@H]1CCN(c2nccnc2Oc2ccc(C(=O)c3nc4ccccc4[nH]3)cc2)C1 [drawing 829]

Same assay, conditions: PDE10 enzyme inhibition; chiral compounds separated from racemic mixtures; read-out: IC50

IC50 [nM]	Structure (SMILES)
< 25	COC(=O)[C@@H]1CCN(c2nccnc2Oc2ccc(C(=O)c3nc4ccccc4[nH]3)cc2)C1 [Example 266, (R)-methyl 1-(3-(4-(1H-benzo[d]imidazole-2-carbonyl)phenoxy)pyrazin-2-yl)pyrrolidine-3-carboxylate]
< 25	COC(=O)[C@H]1CCN(c2nccnc2Oc2ccc(C(=O)c3nc4ccccc4[nH]3)cc2)C1 [Example 265, (S)-methyl 1-(3-(4-(1H-benzo[d]imidazole-2-carbonyl)phenoxy)pyrazin-2-yl)pyrrolidine-3-carboxylate]
< 25	N#C[C@@H]1CCN(c2nccnc2Oc2ccc(C(=O)c3nc4ccccc4[nH]3)cc2)C1 [Example 261, (R)-1-(3-(4-(1H-benzo[d]imidazole-2-carbonyl)phenoxy)pyrazin-2-yl)pyrrolidine-3-carbonitrile]
